This passage reports DC50 results from patent US12091411B2, “IRAK degraders and uses thereof” (Kymera Therapeutics, Inc., priority 2022, dated 2024).

For the assay, the target named is T1, IRAK4 (Homo sapiens, UniProt Q9NWZ3).
T1 construct: Degradation of IRAK4 in OCI-LY10 was quantitatively measured using Meso Scale Discovery technology; endogenous in cells; host or cells: OCI-LY10
T1 sequence (Q9NWZ3 1-460): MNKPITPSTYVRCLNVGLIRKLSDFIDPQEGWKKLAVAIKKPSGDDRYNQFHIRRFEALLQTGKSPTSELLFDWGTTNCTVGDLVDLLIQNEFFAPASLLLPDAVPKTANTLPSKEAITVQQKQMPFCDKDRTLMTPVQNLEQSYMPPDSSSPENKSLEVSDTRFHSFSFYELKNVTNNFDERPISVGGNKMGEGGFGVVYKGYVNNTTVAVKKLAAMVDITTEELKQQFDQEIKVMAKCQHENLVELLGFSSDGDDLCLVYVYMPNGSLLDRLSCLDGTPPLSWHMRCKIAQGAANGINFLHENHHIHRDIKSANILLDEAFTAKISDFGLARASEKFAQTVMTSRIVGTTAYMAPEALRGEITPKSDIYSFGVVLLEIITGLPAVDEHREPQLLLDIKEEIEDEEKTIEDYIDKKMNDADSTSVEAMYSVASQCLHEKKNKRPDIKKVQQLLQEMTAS
Description: IRAK4 MSD Degradation in OCI-LY10. The format is cell-based. To be noted: OCI-LY10 cells, MSD. The essentials: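 OCI-LY10 cells exposed to 8-point 1:3 compound series (top 1 to 10 μM) for 4 to 24 h at 37 °C, 5% CO2. Lysate IRAK4 quantified by MSD sandwich immunoassay. DC50 from three-parameter logistic fit, binned A (<0.01 μM) to D (>0.2 μM or not tested).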

[1] abbreviates: 4 hrs incubation, read-out: IRAK4 degradation in OCI-LY10 at 4 hrs: DC50.
[2] abbreviates: 24 hrs incubation, read-out: IRAK4 degradation in OCI-LY10 at 24 hrs: DC50.

Structures are written as SMILES. Like-named read-outs stand apart in the source and are kept apart here.

The term DC50 denotes the concentration at which degradation of the target reaches its halfway point. In the case of `Cn1c(=O)n(C2CCC(=O)NC2=O)c2cccc([C@@H]3CCN(C[C@H]4CC[C@H](n5cc6cc(NC(=O)c7cccc(C#N)n7)ccc6n5)CC4)C[C@@H]3F)c21` (stereo partly shown) [I-624], the half-maximal degradation concentration (DC50) runs as follows: under setting [1], > 0.2 µM; under setting [2], > 0.2 µM.

Take `Cn1c(=O)n(C2CCC(=O)NC2=O)c2cccc([C@@H]3CCN(C[C@H]4CC[C@H](n5cc6cc(NC(=O)c7cccc(C#N)n7)ccc6n5)CC4)C[C@H]3F)c21` (stereo partly shown) [I-625]: the DC50 was > 0.2 µM under setting [1] and < 0.01 µM under setting [2].

Take `Cn1c(=O)n(C2CCC(=O)NC2=O)c2cccc([C@H]3CCN(C[C@H]4CC[C@H](n5cc6cc(NC(=O)c7cccc(C#N)n7)ccc6n5)CC4)C[C@@H]3F)c21` (stereo partly shown) [I-626]: the DC50 is, setting by setting: under setting [1], > 0.2 µM; under setting [2], > 0.2 µM.

For the molecule `Cn1c(=O)n(C2CCC(=O)NC2=O)c2cccc([C@H]3CCN(C[C@H]4CC[C@H](n5cc6cc(NC(=O)c7cccc(C#N)n7)ccc6n5)CC4)C[C@H]3F)c21` (stereo partly shown) [I-627], the DC50 under setting [1] is > 0.2 µM and the DC50 under setting [2] was > 0.2 µM.

As for `Cn1c(=O)n(C2CCC(=O)NC2=O)c2cccc([C@@H]3CCN(C[C@H]4CC[C@H](n5cc6cc(NC(=O)c7cccc(C(F)F)n7)ccc6n5)CC4)C[C@@H]3F)c21` (stereo partly shown) [I-628], the DC50 is, setting by setting: under setting [1], > 0.2 µM; under setting [2], > 0.2 µM.

As to `Cn1c(=O)n(C2CCC(=O)NC2=O)c2cccc([C@@H]3CCN(C[C@H]4CC[C@H](n5cc6cc(NC(=O)c7cccc(C(F)F)n7)ccc6n5)CC4)C[C@H]3F)c21` (stereo partly shown) [I-629], the DC50 reads like this: under setting [1], > 0.2 µM; under setting [2], < 0.01 µM.

In the case of `Cn1c(=O)n(C2CCC(=O)NC2=O)c2cccc([C@H]3CCN(C[C@H]4CC[C@H](n5cc6cc(NC(=O)c7cccc(C(F)F)n7)ccc6n5)CC4)C[C@@H]3F)c21` (stereo partly shown) [I-630], the DC50 is > 0.2 µM under setting [1] and > 0.2 µM under setting [2].

With `Cn1c(=O)n(C2CCC(=O)NC2=O)c2cccc([C@H]3CCN(C[C@H]4CC[C@H](n5cc6cc(NC(=O)c7cccc(C(F)F)n7)ccc6n5)CC4)C[C@H]3F)c21` (stereo partly shown) [I-631], the DC50 runs as follows: under setting [1], > 0.2 µM; under setting [2], > 0.2 µM.

With `Cc1cccc(C(=O)Nc2cc3cn([C@H]4CC[C@H](CN5CC[C@@H](c6cccc7c6n(C)c(=O)n7C6CCC(=O)NC6=O)[C@@H](F)C5)CC4)nc3cn2)n1` (stereo partly shown) [I-632], the DC50 is > 0.2 µM under setting [1] and > 0.2 µM under setting [2].

Turning to `Cc1cccc(C(=O)Nc2cc3cn([C@H]4CC[C@H](CN5CC[C@@H](c6cccc7c6n(C)c(=O)n7C6CCC(=O)NC6=O)[C@H](F)C5)CC4)nc3cn2)n1` (stereo partly shown) [I-633], the DC50 reads like this: under setting [1], > 0.2 µM; under setting [2], < 0.01 µM.

With `Cc1cccc(C(=O)Nc2cc3cn([C@H]4CC[C@H](CN5CC[C@H](c6cccc7c6n(C)c(=O)n7C6CCC(=O)NC6=O)[C@@H](F)C5)CC4)nc3cn2)n1` (stereo partly shown) [I-634], the 50% degradation concentration (DC50) is > 0.2 µM under setting [1] and > 0.2 µM under setting [2].

Turning to `Cc1cccc(C(=O)Nc2cc3cn([C@H]4CC[C@H](CN5CC[C@H](c6cccc7c6n(C)c(=O)n7C6CCC(=O)NC6=O)[C@H](F)C5)CC4)nc3cn2)n1` (stereo partly shown) [I-635], the 50% degradation concentration (DC50) under setting [1] was > 0.2 µM and the DC50 under setting [2] was > 0.2 µM.

As for `Cn1c(=O)n(C2CCC(=O)NC2=O)c2cccc([C@@H]3CCN(C[C@H]4CC[C@H](n5cc6cc(NC(=O)c7cccc(C#N)n7)ncc6n5)CC4)C[C@@H]3F)c21` (stereo partly shown) [I-636], the DC50 was > 0.2 µM under setting [1] and > 0.2 µM under setting [2].

As to `Cn1c(=O)n(C2CCC(=O)NC2=O)c2cccc([C@@H]3CCN(C[C@H]4CC[C@H](n5cc6cc(NC(=O)c7cccc(C#N)n7)ncc6n5)CC4)C[C@H]3F)c21` (stereo partly shown) [I-637], the DC50 reads like this: under setting [1], > 0.2 µM; under setting [2], < 0.01 µM.

Consider `Cn1c(=O)n(C2CCC(=O)NC2=O)c2cccc([C@H]3CCN(C[C@H]4CC[C@H](n5cc6cc(NC(=O)c7cccc(C#N)n7)ncc6n5)CC4)C[C@@H]3F)c21` (stereo partly shown) [I-638], for which the DC50 is, setting by setting: under setting [1], > 0.2 µM; under setting [2], < 0.01 µM.

As to `Cn1c(=O)n(C2CCC(=O)NC2=O)c2cccc([C@H]3CCN(C[C@H]4CC[C@H](n5cc6cc(NC(=O)c7cccc(C#N)n7)ncc6n5)CC4)C[C@H]3F)c21` (stereo partly shown) [I-639], the DC50 runs as follows: under setting [1], > 0.2 µM; under setting [2], > 0.2 µM.

Regarding `Cn1c(=O)n(C2CCC(=O)NC2=O)c2cccc([C@@H]3CCN(C[C@H]4CC[C@H](n5cc6cc(NC(=O)c7cccc(C(F)F)n7)ncc6n5)CC4)C[C@@H]3F)c21` (stereo partly shown) [I-640], the DC50 is > 0.2 µM under setting [1] and > 0.2 µM under setting [2].

In the case of `Cn1c(=O)n(C2CCC(=O)NC2=O)c2cccc([C@@H]3CCN(C[C@H]4CC[C@H](n5cc6cc(NC(=O)c7cccc(C(F)F)n7)ncc6n5)CC4)C[C@H]3F)c21` (stereo partly shown) [I-641], the DC50 runs as follows: under setting [1], > 0.2 µM; under setting [2], < 0.01 µM.

With `Cn1c(=O)n(C2CCC(=O)NC2=O)c2cccc([C@H]3CCN(C[C@H]4CC[C@H](n5cc6cc(NC(=O)c7cccc(C(F)F)n7)ncc6n5)CC4)C[C@@H]3F)c21` (stereo partly shown) [I-642], the DC50 runs as follows: under setting [1], > 0.2 µM; under setting [2], > 0.2 µM.

Take `Cn1c(=O)n(C2CCC(=O)NC2=O)c2cccc([C@H]3CCN(C[C@H]4CC[C@H](n5cc6cc(NC(=O)c7cccc(C(F)F)n7)ncc6n5)CC4)C[C@H]3F)c21` (stereo partly shown) [I-643]: the DC50 is > 0.2 µM under setting [1] and > 0.2 µM under setting [2].

For `Cc1cccc(C(=O)Nc2cc3cn([C@H]4CC[C@H](CN5CC[C@@H](c6cccc7c6n(C)c(=O)n7C6CCC(=O)NC6=O)[C@@H](F)C5)CC4)nc3cc2C(C)(C)O)n1` (stereo partly shown) [I-644], the DC50 under setting [1] is > 0.2 µM and the DC50 under setting [2] is > 0.2 µM.

`Cc1cccc(C(=O)Nc2cc3cn([C@H]4CC[C@H](CN5CC[C@@H](c6cccc7c6n(C)c(=O)n7C6CCC(=O)NC6=O)[C@H](F)C5)CC4)nc3cc2C(C)(C)O)n1` (stereo partly shown) [I-645]: the DC50 is > 0.2 µM under setting [1] and < 0.01 µM under setting [2].

For `Cc1cccc(C(=O)Nc2cc3cn([C@H]4CC[C@H](CN5CC[C@H](c6cccc7c6n(C)c(=O)n7C6CCC(=O)NC6=O)[C@@H](F)C5)CC4)nc3cc2C(C)(C)O)n1` (stereo partly shown) [I-646], the DC50 reads like this: under setting [1], > 0.2 µM; under setting [2], > 0.2 µM.

Regarding `Cc1cccc(C(=O)Nc2cc3cn([C@H]4CC[C@H](CN5CC[C@H](c6cccc7c6n(C)c(=O)n7C6CCC(=O)NC6=O)[C@H](F)C5)CC4)nc3cc2C(C)(C)O)n1` (stereo partly shown) [I-647], the DC50 is > 0.2 µM under setting [1] and > 0.2 µM under setting [2].

For `Cn1c(=O)n(C2CCC(=O)NC2=O)c2cccc([C@@H]3CCN(C[C@H]4CC[C@H](n5cc6cc(NC(=O)c7cccc(C#N)n7)c(C(C)(C)O)cc6n5)CC4)C[C@@H]3F)c21` (stereo partly shown) [I-648], the DC50 is > 0.2 µM under setting [1] and > 0.2 µM under setting [2].

On to `Cn1c(=O)n(C2CCC(=O)NC2=O)c2cccc([C@@H]3CCN(C[C@H]4CC[C@H](n5cc6cc(NC(=O)c7cccc(C#N)n7)c(C(C)(C)O)cc6n5)CC4)C[C@H]3F)c21` (stereo partly shown) [I-649], for which the DC50 by setting is: under setting [1], > 0.2 µM; under setting [2], < 0.01 µM.

As for `Cn1c(=O)n(C2CCC(=O)NC2=O)c2cccc([C@H]3CCN(C[C@H]4CC[C@H](n5cc6cc(NC(=O)c7cccc(C#N)n7)c(C(C)(C)O)cc6n5)CC4)C[C@@H]3F)c21` (stereo partly shown) [I-650], the DC50 reads like this: under setting [1], > 0.2 µM; under setting [2], > 0.2 µM.

Turning to `Cn1c(=O)n(C2CCC(=O)NC2=O)c2cccc([C@H]3CCN(C[C@H]4CC[C@H](n5cc6cc(NC(=O)c7cccc(C#N)n7)c(C(C)(C)O)cc6n5)CC4)C[C@H]3F)c21` (stereo partly shown) [I-651], the 50% degradation concentration (DC50) reads like this: under setting [1], > 0.2 µM; under setting [2], > 0.2 µM.

With `Cn1c(=O)n(C2CCC(=O)NC2=O)c2cccc(C3CCN(C[C@H]4CC[C@H](n5cc6cc(NC(=O)c7cccc(C(F)F)n7)c(C(C)(C)O)cc6n5)CC4)C[C@@H]3F)c21` (stereo partly shown) [I-652], the DC50 by setting is: under setting [1], > 0.2 µM; under setting [2], > 0.2 µM.

As to `Cn1c(=O)n(C2CCC(=O)NC2=O)c2cccc([C@@H]3CCN(C[C@H]4CC[C@H](n5cc6cc(NC(=O)c7cccc(C(F)F)n7)c(C(C)(C)O)cc6n5)CC4)C[C@H]3F)c21` (stereo partly shown) [I-653], the DC50 is, setting by setting: under setting [1], > 0.2 µM; under setting [2], < 0.01 µM.

Consider `Cn1c(=O)n(C2CCC(=O)NC2=O)c2cccc([C@H]3CCN(C[C@H]4CC[C@H](n5cc6cc(NC(=O)c7cccc(C(F)F)n7)c(C(C)(C)O)cc6n5)CC4)C[C@@H]3F)c21` (stereo partly shown) [I-654], for which the DC50 under setting [1] was > 0.2 µM and the DC50 under setting [2] was > 0.2 µM.

Consider `Cn1c(=O)n(C2CCC(=O)NC2=O)c2cccc([C@H]3CCN(C[C@H]4CC[C@H](n5cc6cc(NC(=O)c7cccc(C(F)F)n7)c(C(C)(C)O)cc6n5)CC4)C[C@H]3F)c21` (stereo partly shown) [I-655], for which the half-maximal degradation concentration (DC50) reads like this: under setting [1], > 0.2 µM; under setting [2], > 0.2 µM.

Regarding `Cn1c(=O)n(C2CCC(=O)NC2=O)c2cccc([C@H]3CCN(C[C@H]4CC[C@H](n5cc6cc(NC(=O)c7cccc(C(F)(F)F)n7)ncc6n5)CC4)C[C@@H]3F)c21` (stereo partly shown) [I-657], the DC50 is, setting by setting: under setting [1], > 0.2 µM; under setting [2], > 0.2 µM.

As for `Cn1c(=O)n(C2CCC(=O)NC2=O)c2cccc(N3CCN(CC4COC5(C4)CN(C[C@H]4CC[C@H](n6cc(NC(=O)c7cnn8ccc(N9C[C@H]%10C[C@@H]9CO%10)nc78)c(C(F)F)n6)CC4)C5)CC3)c21` (stereo partly shown) [I-660], the DC50 under setting [1] was > 0.2 µM and the DC50 under setting [2] is < 0.01 µM.

Consider `Cn1c(=O)n(C2CCC(=O)NC2=O)c2cccc(N3CCN(CC4COC5(C4)CN(C[C@H]4CC[C@H](n6cc7cc(NC(=O)c8cccc(C(F)(F)F)n8)ccc7n6)CC4)C5)CC3)c21` (stereo partly shown) [I-661], for which the DC50 runs as follows: under setting [1], > 0.2 µM; under setting [2], > 0.2 µM.
